Bridge positions count the residues as written; N and C are the ends. Square brackets hold non-standard residues; d marks the D form. Ends that are not written are not given here.

The test system of assay [1] is activated macrophages. As to conditions: mouse, in vivo; cited from earlier work.
For assay [2], the system named is my32. Description: Anti-my32 IgM response to P0-my32 in tilapia. In kind it is in vivo, Oreochromis niloticus. As to conditions: i.p., day 28; for Anti-my32 IgM antibody titers: P0-my32 1 μg/g co-administrated with 20 μg peptide, Montanide ISA 50, vs P0-my32. The source says: (§1) The chimeric protein P0-my32 was generated by cloning the complementary deoxyribonucleic acid (cDNA) encoding a 35 amino acid peptide of the L. salmonis P0 ribosomal protein fused to the N-terminal end of the cDNA encoding the my32 protein of the same ectoparasite (Carpio et al., 2013; Exp. Parasitol 135: 188-199), in a vector designed for the induced expression of genes of interest in the host bacterium E. coli. This protein was produced in the bacterium and purified, as a fusion protein with a tail of histidine, by metal chelate affinity chromatography.
(§2) For the accomplishment of the immunization experiment, 6 study groups of male juveniles of Oreochromis niloticus, were formed, with 15 animals each. In all groups, the immunogen was administered by i.p. route, adjuvanted with Montaide ISA 50.
(§3) The experimental groups received the following immunogens:
(§4) Group 2: P0-my32 (1 μg/g of fish weight)
(§5) Group 3: P0-my32 (1 μg/g of fish weight) co-administrated with 20 μg GHRP-6
(§6) Group 4: P0-my32 (1 μg/g of fish weight) co-administrated with 20 μg A233
(§7) Group 5: P0-my32 (1 μg/g of fish weight). The fish in this group were fed with feed formulated with 100 μg of GHRP-6 per kg of feed, twice daily, for one week before and one week after the administration of my32 in injections.
(§8) During the course of the experiment, the fish in groups 1 to 4 were fed twice daily with a balanced unmedicated commercial formula, at the rate of 1% of their body weight. Immunizations were performed on days 0 and 14 of the schedule. Blood samples were taken at days 0, 21, 28 and 35 from the start of the experiment.

Assay [3] deals with OVA. Description: Humoral immune response against OVA in mice, A233 co-administered. It is filed as in vivo, BALB/c mice. As to conditions: i.p.; 5 μg OVA + 10 μg A233/animal, Freund's adjuvant; vs OVA alone; day 22. The protocol: To evaluate whether the peptide A233 exerts an adjuvant effect on OVA, 18 female BALB/c mice were used. Mice received 150 μL of immunogen in all groups, by i.p route, which was given to the animals on days 1 and 15 of the immunization schedule. Blood samples were taken at days 0 (preimmune serum), 8, 15, 22, 36, 43 and 50. The titers of total IgG present in the sera were evaluated. The animals were immunized with 5 μg OVA/animal and 10 μg A233/animal (Group 2), or with 5 μg of OVA/animal (Group 3). The control group was injected with PBS (Group 1). All immunogens were emulsified with Freund's adjuvant.

Assay [4] concerns tilapia leukocytes. To be noted: in vitro; cited from earlier work.
Assay [5] has as its system P0. In words: Anti-P0 IgM response to P0-my32 in tilapia. As to conditions: i.p., day 28; for Anti-P0 IgM titer: P0-my32 1 μg/g co-administrated with 20 μg peptide, Montanide ISA 50, vs P0-my32. It is filed as in vivo, Oreochromis niloticus.
Text: as §1, §2, §3, §4, §5, §6, §7, §8

The subject of assay [6] is P0. Description: Anti-P0 IgM response to P0-TT in clarias. To be noted: i.p.; P0-TT 1 μg/g + 20 μg peptide per animal, Montanide ISA 50; vs P0-TT without peptide; day 28. It is filed as in vivo, Clarias gariepinus. Here is the method:
[…]. For the experiment, 4 study groups of C. gariepinus were formed, with 12 animals in each one. These animals were immunized by i.p. route with 1 μg of the P0-TT protein per gram of animal weight (Group 2) or with the same dose of the chimeric protein P0-TT (1 μg/g of animal weight) co-administered with 20 μg of either GHRP-6 or A233 per animal (Groups 3 and 4, respectively), in a total volume of 120 μL. The control group (Group 1) received the same volume of PBS. The immunogens corresponding to all groups were emulsified with Montanide ISA 50 oily adjuvant. The immunization was performed under the same conditions, on days 0 and 14 of the administration schedule. Blood samples were taken at days 0, 21, 28 and 35 counted from the start of the experiment.

Assay [7] deals with tilapia larvae. As to conditions: immersion baths; cited from earlier work.
Assay [8] deals with rainbow trout leucocytes. To be noted: cited from earlier work.
Assay [9] concerns newly hatching chickens. To be noted: dose of 100 ng in ovo, day 10 of incubation; cited from earlier work.
In assay [10] the test system is peptide P0 of R. sanguineus. In words: Humoral immune response against peptide P0 of R. sanguineus in mice, GHRP-6 co-administered. To be noted: i.p.; 100 μg P0 + 200 μg GHRP-6, Freund's adjuvant; vs P0 without GHRP-6; day 36. In kind it is in vivo, BALB/c mice. Here is the method:
The peptide P0 is a fragment corresponding to the region of less sequence identity between the ribosomal protein P0 of the tick R. sanguineus and its mammalian host. To evaluate the humoral immune response stimulated by the co-administration of GHRP-6 and P0, 24 female, 6-week old BALB/c mice were selected and divided into three groups of 8 mice. Each animal received 150 μL of immunogen, by i.p route, on days 1, 15 and 29 of the immunization schedule. In the first immunization FCA was employed, and FIA was used in the other two administrations.
Group 3. 100 μg of P0 co-administrated with 200 μg of GHRP-6.
Blood samples were taken on days 0 (pre-immune serum), 8, 16, 21, 28, 36, 43, 50 and 58, to determine the levels of total IgG.

Assay [11] has as its system Aeromonas hydrophila. Description: Controlled challenge with Aeromonas hydrophila in immunized common carp. It is filed as in vivo, Cyprinus carpio. As to conditions: challenge on day 21 by i.p injection of LD50 of the bacterium; mortality recorded for 7 days. Here is the method:
The experiment was carried out with common carp (C. carpio) of 30±5 g. These animals were kept in 250 L aquaria, at a temperature of 30±2° C. Three experimental groups, of 20 carps each, were established and the animals were injected by i.p. route with:
Group 1: PBS+Montanide ISA 50
Group 2: Inactivated A. hydrophila cells (1×10^8 CFU)+Montanide ISA 50
(§9) Group 3: Inactivated A. hydrophila cells (1×10^8 CFU)+20 μg GHRP-6/fish+Montanide ISA 50.
Fish were injected on day 0 and 14. The challenge was performed on day 21, by i.p injection of the lethal dose 50 (LD50) of the bacterium, and the mortality in each group was recorded for 7 days. The relative survival rate (RSR) was calculated as: RSR(%)=(% mortality of controls−% mortality of treated animals)/(% mortality of controls)×100.

Assay [12] deals with OVA. In words: Humoral immune response against OVA in mice, GHRP-6 co-administered. In kind it is in vivo, BALB/c mice. As to conditions: for Total IgG titers against OVA: GHRP-6 10 μg + OVA 5 μg/animal, Freund's adjuvant, vs OVA without GHRP-6. Here is the method:
Thirty-six female BALB/c mice were used. Six study groups, with 6 animals each, were separated. Three groups were immunized by s.c route and the rest of them were treated by i.p route. In all groups, the immunogens were emulsified with Freund's adjuvant.
Group 1: Placebo (phosphate buffered saline, abbreviated PBS). s.c route.
Group 2: Placebo (PBS). i.p. route.
Group 3: GHRP-6 at 10 μg/animal and OVA at 5 μg/animal. s.c. route.
Group 4 GHRP-6 at 10 μg/animal and OVA at 5 μg/animal. i.p route.
Group 5: OVA 5 μg/animal. s.c. route.
Group 6: OVA 5 μg/animal. i.p. route.
Mice received 150 μL of the immunogen in all groups, which was administered to the animals on days 1 and 15 of the immunization schedule. Blood extractions were performed on days 0 (pre-immune serum), 8, 15, 22, 36, 43 and 50. Total IgG titers, IgG1 and IgG2a were evaluated. Complete Freund's Adjuvant (CFA) was used in the first immunization and Incomplete Freund's Adjuvant (IFA) in the next one. The animals of the group immunized with GHRP-6 and OVA, by s.c route, had higher titers (with statistical significance: p<0.05) than those of the group receiving OVA without GHRP-6, by the same route, on days 22, 36, 43 and 50 of the experiment (FIG. 1A). Animals injected with the same immunogens, but by i.p. route, had the same behavior on days 36 and 43 of the experiment (FIG. 1 B).

Assay [13] concerns Aeromonas hydrophila. In words: Agglutinating antibodies against Aeromonas hydrophila in common carp. It is filed as in vivo, Cyprinus carpio. As to conditions: i.p.; inactivated cells 1×10^8 CFU + 20 μg GHRP-6/fish + Montanide ISA 50; vs bacterium without GHRP-6; day 21. Here is the method: The experiment was carried out with carps (C. carpio) of 40±10 g. These animals were kept in 600 L aquaria, at a temperature of 28±2° C. Three experimental groups, of 10 carps each, were established and injected by i.p. route with the following immunogens:
Group 1: PBS+Montanide ISA 50.
Group 2: Inactivated A. hydrophila cells (1×10^8 Colony Forming Units, abbreviated CFU)+Montanide ISA 50.
as §9
Fish were injected on days 0 and 14, and blood samples were collected from the caudal vein on days 0 and 21. […] The preparation of A. hydrophila cells and the measurement of antibody titers were performed according to previous reports (Yin et al. ((1996) Fish & Shellfish Immunol. 6, 57-69).

Assay [14] concerns juvenile tilapia. As to conditions: orally fed; cited from earlier work.
Assay [15] relates to C2 antigen, a Dengue virus capsid protein. Description: Humoral immune response against C2 antigen in mice, GHRP-6 co-administered. It is filed as in vivo, BALB/c mice. As to conditions: s.c.; 10 μg C2 + 10 μg GHRP-6, aluminum hydroxide; vs C2 without GHRP-6; day 28. Here is the method:
The C2 antigen, a Dengue virus capsid protein, was obtained as a recombinant protein in Escherichia coli, with a molecular weight of 15 kDa. To evaluate the humoral and cellular immune response in mice vaccinated with C2, in presence or absence of GHRP-6, 24 female BALB/c mice, 6-weeks old, were selected. They were distributed into 3 groups. Each animal was given an immunogen, according to the experimental group:
Group 2: 10 μg C2 co-administrated with 10 μg GHRP-6
In all groups, the immunogens further comprised aluminum hydroxide, also known as alum. Immunizations were performed by s.c route, on days 0, 15 and 30 of the immunization schedule. Blood samples were taken at days 0 (pre-immune), 7, 16, 21, 28 and 35, to assess total IgG titers.

Where [16] appears, read: Group 3 (with GHRP-6) vs Group 2.
Where [17] appears, read: serum of day 36, s.c and i.p routes, OVA with vs without GHRP-6.

GHRP-2: in [1], the Arthritis result is listed as “attenuated”, the “Release of interleukin 6 (IL-6) from activated macrophages” value was “significantly inhibited” and the “Release of nitric oxide from activated macrophages” value is given as “significantly inhibited”.
For “A233: growth hormone secretagogue peptide, structural analogue of GHRP-6 (GKFDLSPEHQ; lactam 2-4 (inferred))”, the “Anti-my32 IgM antibody titers” value in assay [2] is reported as “increase”. In addition, the “Anti-OVA antibody titers (total IgG)” value in [3] is listed as “significant increase”. For the same substance, the “Production of indicators of phagocytic activity, such as superoxide anion” value in assay [4] is on record as “stimulated”. Moreover, the “Anti-P0 IgM titer” value in assay [5] is recorded as “increase”. In assay [6], the “Anti-P0 IgM antibody titers” value is “same effect”. In assay [7], the “Antioxidant defense, enzyme superoxide dismutase” value is “stimulates”; the Antiprotease activity entry is given as “stimulates”; the Lectin titers result is given as “stimulates”.
As to [D-Lys3]-GHRP-6, in [8] (prior incubation before ghrelin), the “Production of reactive oxygen species (O^2′—) after prior incubation with antagonist” value is recorded as “decreased”.
As for “ghrelin: endogenous ligand for the growth hormone secretagogues receptor (GHS-R) (GSSFLSPEHQRVQQRKESKKPPAKLQPR; ends and bridges not checked; UniProt Q9UBU3 24-51, looked up)”, in [1], the Arthritis entry was “attenuated”, the “Release of interleukin 6 (IL-6) from activated macrophages” value was “significantly inhibited” and the “Release of nitric oxide from activated macrophages” value was “significantly inhibited”. In addition, in [9], the “Count of heterophil, basophils and eosinophils, and heterophil/lymphocyte ratio” value is “increase”; the Lymphocytes entry was “decreased”. For the same substance, in assay [8] (in vitro), the “Levels of GH messenger ribonucleic acid” value is given as “increases”, the “Production of superoxide anion” value is on record as “increases” and the Superoxide dismutase result was “increases”.
With “His-D-Trp-Ala-Trp-D-Phe-Lys-NH2 (H[dW]AW[dF]K-NH2) [GHRP-6, synthetic growth hormone releasing peptide, hexamer, used as molecular adjuvant]”, the “Number of anti-my32 responder animals, IgM titers greater than 1:1000” value in assay [2] (setting [16]) is listed as “higher”. Besides, in assay [2], the “Anti-my32 IgM antibody titers” value is given as “increase”. Further, the “Anti-P0 IgG titers” value in assay [10] was “significant increase”. For the same substance, the “Relative survival rate (RSR)” value in assay [11] is 95%. The “Total IgG titers against OVA” value in assay [12] (i.p. route, days 36 and 43) is “same behavior”. Moreover, in [12] (intraperitoneal route, mean of the six animals in the group), the IgG1/IgG2a entry is on record as “significantly superior”. Besides, the “Total IgG titers against OVA” value in [12] (s.c. route, days 22, 36, 43 and 50, p<0.05) is on record as “higher titers”. Moreover, in [12] (setting [17]), the IgG1 titers entry is “higher” and the IgG2a titers result is listed as “No significant differences”. Further, the “Number of anti-P0 responder animals, IgM titers greater than 1:1000” value in assay [5] (setting [16]) is on record as “higher”. For the same substance, the “Anti-P0 IgM titer” value in assay [5] is “same effect”. Further, the “Anti-P0 IgM antibody titers” value in assay [6] is reported as “increase”. Moreover, the “Titers of agglutinating antibodies against A. hydrophila” value in assay [13] is given as “significantly higher”. For the same substance, in assay [14], the Lectin titers entry is “increase” and the “Number of intraepithelial lymphocytes of the gastric mucosa” value is given as “increase”. In addition, in assay [15], the “Anti-C2 IgG titer” value is on record as “significant increase”.
